Earlier results, collected in PubChem BioAssay AID1259409 (Chemical Carcinogenesis Research Information System (CCRIS), 2018).
Where “and” joins values, the source holds several entries; their conditions need not be identical. Equal values may be shown once.

Test system: rodent chemically induced tumor inhibition, incidence and multiplicity
Assay: CCRIS tumor inhibitor studies
Details: Promoter: NONE USED

For O=C(O)/C=C/c1ccccc1O, the “tumour outcome (control, treated, inhibition, significance)” value (Carcinogen: BENZO[A]PYRENE, 50-32-8, Dose [Inhibitor]: 0.03 MMOL/G OF DIET DAILY STARTING 7 D BEFORE AND CONTINUING THROUGH 3 D AFTER CARCINOGEN TREATMENT FOLLOWED BY OBSERVAT, Route [Inhibitor]: ORAL, Species: MOUSE, Strain/Sex: ICR/FEMALE, Target Tissue: Type of Lesion: FORESTOMACH: NEOPLASM, Dose [Carcinogen]: 1 MG IN 0.2 ML CORN OIL 2/WK FOR 4 WK) is listed as 100%, 100%, 0%, not significant and the “tumour outcome (control, treated, inhibition, significance)” value (Carcinogen: BENZO[A]PYRENE, 50-32-8, Dose [Inhibitor]: 0.06 MMOL/G OF DIET DAILY STARTING 7 D BEFORE AND CONTINUING THROUGH 3 D AFTER CARCINOGEN TREATMENT FOLLOWED BY OBSERVAT, Route [Inhibitor]: ORAL, Species: MOUSE, Strain/Sex: ICR/FEMALE, Target Tissue: Type of Lesion: FORESTOMACH: NEOPLASM, Dose [Carcinogen]: 1 MG IN 0.2 ML CORN OIL 2/WK FOR 4 WK) is listed as 100%, 84%, 16%, not significant and 97%, 89%, 8%, not significant and 100%, 82%, 18%, not significant.

For S=C=NC(Cc1ccccc1)c1ccccc1 (stereo not given), the “tumour outcome (control, treated, inhibition, significance)” value (Carcinogen: 4-(METHYLNITROSAMINO)-1-(3-PYRIDYL)-1-BUTANONE, 64091-91-4, Dose [Inhibitor]: 0, 1 UMOL ONCE 2 HR PRIOR TO CARCINOGEN DOSE (STUDY DURATION: 16 WK), Route [Inhibitor]: GAVAGE, Species: MOUSE, Strain/Sex: STRAIN-A/FEMALE, Target Tissue: Type of Lesion: LUNG: ADENOMA, Dose [Carcinogen]: 10 UMOL IN 0.1 ML SALINE ONCE) is given as 100%, 60%, 40%, p<0.05 and the “tumour outcome (control, treated, inhibition, significance)” value (Carcinogen: 4-(METHYLNITROSAMINO)-1-(3-PYRIDYL)-1-BUTANONE, 64091-91-4, Dose [Inhibitor]: 0, 5 UMOL ONCE 2 HR PRIOR TO CARCINOGEN DOSE (STUDY DURATION: 16 WK), Route [Inhibitor]: GAVAGE, Species: MOUSE, Strain/Sex: STRAIN-A/FEMALE, Target Tissue: Type of Lesion: LUNG: ADENOMA, Dose [Carcinogen]: 10 UMOL IN 0.1 ML SALINE ONCE) is given as 100%, 45%, 55%, p<0.05.

In the case of O=C(/C=C/c1ccccc1)c1ccccc1, the “tumour outcome (control, treated, inhibition, significance)” value (Carcinogen: 4-NITROQUINOLINE-1-OXIDE, 56-57-5, Dose [Inhibitor]: 0, 500 PPM IN DIET FOR 10 WK BEGINNING 1 WK PRIOR TO CARCINOGEN DOSE (STUDY DURATION: 32 WK), Route [Inhibitor]: ORAL, Species: RAT, Strain/Sex: F344/MALE, Target Tissue: Type of Lesion: TONGUE: CARCINOMA, Dose [Carcinogen]: 20 PPM IN DRINKING WATER FOR 8 WK) is listed as 9/15 (60%), 3/16 (19%), 68%, p<0.05, the “tumour outcome (control, treated, inhibition, significance)” value (Carcinogen: 4-NITROQUINOLINE-1-OXIDE, 56-57-5, Dose [Inhibitor]: 0, 500 PPM IN DIET FOR 10 WK BEGINNING 1 WK PRIOR TO CARCINOGEN DOSE (STUDY DURATION: 32 WK), Route [Inhibitor]: ORAL, Species: RAT, Strain/Sex: F344/MALE, Target Tissue: Type of Lesion: TONGUE: PAPILLOMA, Dose [Carcinogen]: 20 PPM IN DRINKING WATER FOR 8 WK) is listed as 4/15 (27%), 1/16 (6%), 78%, not significant and the “tumour outcome (control, treated, inhibition, significance)” value (Carcinogen: 4-NITROQUINOLINE-1-OXIDE, 56-57-5, Dose [Inhibitor]: 0, 500 PPM IN DIET FOR 22 WK BEGINNING 1 WK POST CARCINOGEN TREATMENT (STUDY DURATION: 32 WK), Route [Inhibitor]: ORAL, Species: RAT, Strain/Sex: F344/MALE, Target Tissue: Type of Lesion: TONGUE: CARCINOMA, Dose [Carcinogen]: 20 PPM IN DRINKING WATER FOR 8 WK) is listed as 9/15 (60%), 3/16 (19%), 68%, p<0.05. The “tumour outcome (control, treated, inhibition, significance)” value (Carcinogen: 4-NITROQUINOLINE-1-OXIDE, 56-57-5, Dose [Inhibitor]: 0, 500 PPM IN DIET FOR 22 WK BEGINNING 1 WK POST CARCINOGEN TREATMENT (STUDY DURATION: 32 WK), Route [Inhibitor]: ORAL, Species: RAT, Strain/Sex: F344/MALE, Target Tissue: Type of Lesion: TONGUE: PAPILLOMA, Dose [Carcinogen]: 20 PPM IN DRINKING WATER FOR 8 WK) was 4/15 (27%), 0/16 (0%), 100%, p<0.05, the “tumour outcome (control, treated, inhibition, significance)” value (Carcinogen: BENZO[A]PYRENE, 50-32-8, Dose [Inhibitor]: 0, 0.2 MG/G IN DIET FOR 21 WK BEGINNING 1 WK POST LAST CARCINOGEN DOSE (STUDY DURATION: 23 WK), Route [Inhibitor]: ORAL, Species: MOUSE, Strain/Sex: STRAIN-A/FEMALE, Target Tissue: Type of Lesion: FORESTOMACH: TUMOR, Dose [Carcinogen]: 2 MG IN 0.2 ML COTTONSEED OIL ONCE EACH ON DAYS 1, 3 AND 7 OF STUDY) was 93%, 100%, -8%, not significant and the “tumour outcome (control, treated, inhibition, significance)” value (Carcinogen: BENZO[A]PYRENE, 50-32-8, Dose [Inhibitor]: 0, 1 MG/G IN DIET FOR 21 WK BEGINNING 1 WK POST LAST CARCINOGEN DOSE (STUDY DURATION: 23 WK), Route [Inhibitor]: ORAL, Species: MOUSE, Strain/Sex: STRAIN-A/FEMALE, Target Tissue: Type of Lesion: FORESTOMACH: TUMOR, Dose [Carcinogen]: 2 MG IN 0.2 ML COTTONSEED OIL ONCE EACH ON DAYS 1, 3 AND 7 OF STUDY) was 93%, 100%, -8%, not significant. The “tumour outcome (control, treated, inhibition, significance)” value (Carcinogen: BENZO[A]PYRENE, 50-32-8, Dose [Inhibitor]: 0, 5 MG/G IN DIET FOR 21 WK BEGINNING 1 WK POST LAST CARCINOGEN DOSE (STUDY DURATION: 23 WK), Route [Inhibitor]: ORAL, Species: MOUSE, Strain/Sex: STRAIN-A/FEMALE, Target Tissue: Type of Lesion: FORESTOMACH: TUMOR, Dose [Carcinogen]: 2 MG IN 0.2 ML COTTONSEED OIL ONCE EACH ON DAYS 1, 3 AND 7 OF STUDY) was 93%, 100%, -8%, not significant, the “tumour outcome (control, treated, inhibition, significance)” value (Carcinogen: BENZO[A]PYRENE, 50-32-8, Dose [Inhibitor]: 0, 10 MG/G IN DIET FOR 21 WK BEGINNING 1 WK POST LAST CARCINOGEN DOSE (STUDY DURATION: 23 WK), Route [Inhibitor]: ORAL, Species: MOUSE, Strain/Sex: STRAIN-A/FEMALE, Target Tissue: Type of Lesion: FORESTOMACH: TUMOR, Dose [Carcinogen]: 2 MG IN 0.2 ML COTTONSEED OIL ONCE EACH ON DAYS 1, 3 AND 7 OF STUDY) was 93%, 100%, -8%, not significant and the “tumour outcome (control, treated, inhibition, significance)” value (Carcinogen: N-METHYL-N-NITROSOUREA, 684-93-5, Dose [Inhibitor]: 0, 5 MG/G IN DIET FOR 17 WK BEGINNING 1 WK POST CARCINOGEN DOSE (STUDY DURATION: 18 WK), Route [Inhibitor]: ORAL, Species: RAT, Strain/Sex: SPRAGUE-DAWLEY/FEMALE, Target Tissue: Type of Lesion: MAMMARY GLAND: TUMOR, Dose [Carcinogen]: 50 MG/KG BW ONCE) was 71%, 36%, 49%, p=0.058. For the same molecule, the “tumour outcome (control, treated, inhibition, significance)” value (Carcinogen: N-METHYL-N-NITROSOUREA, 684-93-5, Dose [Inhibitor]: 0, 5 MG/G IN DIET STARTING 4 WK POST CARCINOGEN DOSE THEN FED FOR 3 WK ALTERNATING WITH 3 WK ON CONTROL DIET FOR DURATIO, Route [Inhibitor]: ORAL, Species: RAT, Strain/Sex: SPRAGUE-DAWLEY/FEMALE, Target Tissue: Type of Lesion: MAMMARY GLAND: TUMOR, Dose [Carcinogen]: 50 MG/KG BW ONCE) was 75%, 38%, 49%, p=0.033.

For C[C@]12C[C@H](O)[C@H]3[C@@H](CCC4=CC(=O)CC[C@@]43C)[C@@H]1CC[C@@H]2C(=O)CO, the “tumour outcome (control, treated, inhibition, significance)” value (Dose [Inhibitor]: 0, 1.5 MG 2/WK FOR 10 WK (STUDY DURATION: 65 WK), Route [Inhibitor]: INTRAMUSCULAR, Species: RAT, Strain/Sex: F344/MALE, Target Tissue: Type of Lesion: LIVER: HEPATOCELLULAR CARCINOMA, Dose [Carcinogen]: 100 UG 2/WK FOR 10 WK) is given as 12/13 (92%), 12/23 (52%), 43%, p<0.02.
